According to patent US20110313233A1, “DOWN-REGULATION OF COLD SHOCK PROTEINS FOR CANCER TREATMENT” (THE JOHNS HOPKINS UNIVERSITY, priority 2010, published 2011):

System: LNCaP cells
Test: Western blotting of Cyclin B1, Cyclin D1, γ-H2A.X, phosph-p53, p21
Assay type: cell-based
Conditions: scrambled siRNA controls
Procedure: Western blotting: Twenty-five micrograms of protein were separated on 10% to 20% SDS-PAGE and transferred onto PVD filters (Millipore, Bedford, Mass.). Membranes were incubated with primary antibodies overnight at 4° C. followed by horseradish peroxidase-conjugated secondary antibodies, and developed with the Super Signal West Dura Extended Duration Substrate kit (Pierce). RBM3 antibody was generated in a rabbit against as peptide (Sigma-Gneosys, The Woodlands, Tex.). HSPA1A and CIRBP antibodies were obtained from Lifespan Biosciences (ProteinTech Group, Chicago, Ill.), phospho-Histone H2A.X antibody was obtained from Millipore. Other antibodies were purchased from Cell Signaling (Danvers, Mass.) and Santa Cruz (Santa Cruz, Calif.)
Prostate cancer cells PC-3 (FIG. 12A) and LNCaP (FIG. 12B) were transfected with 100 nM RBM3 or CIRBP SMARTpool siRNA. Forty-eight hours after transfection, cells were treated with 4 μg/ml cDDP or 1 μg/ml ADM for 4 h, and then moved back to normal medium for another 16 h. Cell lysates were subjected to Western blotting to detect Cyclin B1, Cyclin D1, phosph-histone H2A.X (Ser139) (γ-H2A.X), phosph-p53 (Ser15), and p21. Actin was used as a control for protein loading.

Compound	activation of p53 by drug treatment
[NH2][Pt]([NH2])([Cl])[Cl] [cDDP, cisplatin]	activated
COc1cccc2c1C(=O)c1c(O)c3c(c(O)c1C2=O)C[C@@](O)(C(=O)CO)C[C@@H]3O[C@H]1C[C@H](N)[C@H](O)[C@H](C)O1 [ADM, adriamycin]	activated
